We go through seven compounds from ChEMBL document CHEMBL2029332, “Identification of binding specificity-determining features in protein families” (J Med Chem, 2012).

Usually pKi stands for the negative decadic logarithm of the Ki, by convention in mol/L.

The target of assay [1] is Protein-tyrosine kinase 2-beta (Homo sapiens, UniProt Q14289). Kind of assay: Inhibition of human recombinant PYK2 by ESI-MS analysis.
Assay [2] deals with Cyclin-dependent kinase 2/cyclin E1 (Homo sapiens, UniProt P24941). Kind of assay: Inhibition of human recombinant CDK2/CycE using HHASPRK as substrate by ESI-MS analysis. Type of assay: protein-complex assay.
In assay [3] the target is T1, Tyrosine-protein kinase ZAP-70 (Homo sapiens, UniProt P43403).
T1 sequence (P43403 whole entry): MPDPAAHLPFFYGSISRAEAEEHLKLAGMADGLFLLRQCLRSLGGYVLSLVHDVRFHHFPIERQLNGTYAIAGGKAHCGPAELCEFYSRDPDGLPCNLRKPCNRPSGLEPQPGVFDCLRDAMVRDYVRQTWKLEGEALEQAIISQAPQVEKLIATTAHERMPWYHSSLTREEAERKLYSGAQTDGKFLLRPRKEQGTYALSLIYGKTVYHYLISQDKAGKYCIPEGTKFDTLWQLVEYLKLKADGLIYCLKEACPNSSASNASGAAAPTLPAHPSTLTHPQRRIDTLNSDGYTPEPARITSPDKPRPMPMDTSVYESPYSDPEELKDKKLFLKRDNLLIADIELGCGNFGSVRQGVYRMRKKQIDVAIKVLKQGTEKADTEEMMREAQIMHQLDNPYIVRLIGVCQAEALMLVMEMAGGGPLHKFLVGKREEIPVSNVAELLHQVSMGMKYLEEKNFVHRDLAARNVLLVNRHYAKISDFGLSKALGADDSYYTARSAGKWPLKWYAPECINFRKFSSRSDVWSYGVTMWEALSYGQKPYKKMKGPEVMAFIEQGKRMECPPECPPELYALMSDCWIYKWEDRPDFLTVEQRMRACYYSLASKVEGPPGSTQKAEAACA
Kind of assay: Inhibition of human recombinant ZAP70 using EEEEYEEEE as substrate by ESI-MS analysis.

pKi: −log10 of the molar value.

Chain of Protein-tyrosine kinase 2-beta (Q14289 whole entry): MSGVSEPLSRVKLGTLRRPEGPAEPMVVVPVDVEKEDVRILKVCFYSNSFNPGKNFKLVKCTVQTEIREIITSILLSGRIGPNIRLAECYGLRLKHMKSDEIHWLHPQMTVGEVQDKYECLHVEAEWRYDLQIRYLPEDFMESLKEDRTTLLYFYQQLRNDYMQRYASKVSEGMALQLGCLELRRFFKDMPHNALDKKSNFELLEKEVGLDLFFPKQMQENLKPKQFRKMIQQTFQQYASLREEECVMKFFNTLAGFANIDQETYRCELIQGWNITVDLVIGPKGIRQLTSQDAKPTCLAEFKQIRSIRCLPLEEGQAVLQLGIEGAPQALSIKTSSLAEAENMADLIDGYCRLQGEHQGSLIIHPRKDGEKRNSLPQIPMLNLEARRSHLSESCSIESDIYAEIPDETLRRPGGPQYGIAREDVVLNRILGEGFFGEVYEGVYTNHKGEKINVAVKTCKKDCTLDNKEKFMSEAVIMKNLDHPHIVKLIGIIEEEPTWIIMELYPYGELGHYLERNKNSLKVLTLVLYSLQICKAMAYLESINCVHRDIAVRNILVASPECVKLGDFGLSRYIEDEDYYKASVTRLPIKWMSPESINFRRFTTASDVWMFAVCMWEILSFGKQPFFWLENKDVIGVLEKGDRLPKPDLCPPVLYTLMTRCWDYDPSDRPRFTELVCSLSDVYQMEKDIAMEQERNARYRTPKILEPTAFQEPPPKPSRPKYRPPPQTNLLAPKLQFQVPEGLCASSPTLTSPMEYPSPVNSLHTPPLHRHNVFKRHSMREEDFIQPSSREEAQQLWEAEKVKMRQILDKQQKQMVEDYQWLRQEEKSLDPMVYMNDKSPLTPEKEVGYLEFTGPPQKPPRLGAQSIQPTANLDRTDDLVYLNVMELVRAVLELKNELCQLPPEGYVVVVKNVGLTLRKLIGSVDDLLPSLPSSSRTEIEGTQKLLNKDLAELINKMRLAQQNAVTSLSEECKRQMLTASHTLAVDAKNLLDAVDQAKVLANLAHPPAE

In the case of `O=C1C(C2=C3C(=Nc4ccccc43)/C(=C\c3ccc(O)cc3)C2=O)=C2C(=Nc3ccccc32)/C1=C\c1ccc(O)cc1` [SCYTONEMIN], the negative-log Ki (pKi) in assay [1] is less than 5.00; in assay [2], 6.43; in assay [3] it was 5.81.

As to `Cc1[nH]c(/C=C2\C(=O)Nc3ccc(S(=O)(=O)N(C)c4cccc(Cl)c4)cc32)c(C)c1C(=O)N1CCN(C)CC1`, the figures for the negative logarithm of the Ki (pKi) in assay [1], in assay [2] and in assay [3] were 7.98, 6.31 and less than 5.00, respectively.

In the case of `CCCCc1c(-c2ccc(OC)cc2)[nH]c2nccnc12` [ALOISINE], the negative logarithm of the Ki (pKi) in assay [1] is 6.03; in assay [2], 9.28; in assay [3], 5.58.

As for `CN(C)c1ncnc2nc[nH]c12` [DIMETHYLADENINE], the pKi in assay [1] is less than 5.00; in assay [2] it was 5.96; in assay [3], less than 5.00.

Turning to `N#CC(C#N)=Cc1ccc(O)c(O)c1` [TYRPHOSTIN 23], the pKi in assay [2] is 6.21.

In the case of `NS(=O)(=O)c1ccc(Nc2nc(OCC3CCCCC3)c3nc[nH]c3n2)cc1`, the pKi in assay [1] and in assay [3] was less than 5.00 in each case.

In the case of `NS(=O)(=O)c1ccc(N/N=C2\C(=O)Nc3ccc(Br)cc32)cc1`, the pKi in assay [1] and in assay [3] was less than 5.00 each time.
